Literature values as cited in patent publication US20250099385A1, “Extended Release Boswellic Acid and Manufacturing Thereof” (Lonza Greenwood LLC, priority 2022, published 2025).
Entries after “also recorded” stand apart in the source; their conditions may differ.

Key:
[1] = not given; remark: listed apart in the source
5-lipoxygenase = biological target: T1, 5-lipoxygenase (Homo sapiens, UniProt P09917)
T1 sequence (P09917 1-674): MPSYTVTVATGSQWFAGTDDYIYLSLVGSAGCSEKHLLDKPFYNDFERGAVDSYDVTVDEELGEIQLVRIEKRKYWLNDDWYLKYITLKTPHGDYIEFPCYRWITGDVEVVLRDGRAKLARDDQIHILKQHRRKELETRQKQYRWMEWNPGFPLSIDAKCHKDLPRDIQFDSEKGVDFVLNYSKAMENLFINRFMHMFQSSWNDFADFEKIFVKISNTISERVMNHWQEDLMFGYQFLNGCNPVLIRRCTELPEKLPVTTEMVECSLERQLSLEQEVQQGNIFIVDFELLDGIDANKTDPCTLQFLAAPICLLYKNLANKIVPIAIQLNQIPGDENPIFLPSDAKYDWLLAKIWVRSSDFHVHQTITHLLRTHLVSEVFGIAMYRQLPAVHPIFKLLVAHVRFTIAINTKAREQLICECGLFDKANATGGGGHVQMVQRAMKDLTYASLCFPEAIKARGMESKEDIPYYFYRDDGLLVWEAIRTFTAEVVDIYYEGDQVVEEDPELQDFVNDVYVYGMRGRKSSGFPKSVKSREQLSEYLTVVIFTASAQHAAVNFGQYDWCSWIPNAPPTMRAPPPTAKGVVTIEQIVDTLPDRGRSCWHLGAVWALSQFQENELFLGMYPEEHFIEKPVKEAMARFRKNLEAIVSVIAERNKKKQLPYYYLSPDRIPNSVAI

Substance: 3-O-acetyl-11-keto-.beta.-boswellic acid [AKBA]
- time at which AKBA levels in the blood peak (after oral consumption): ~3 h
- AKBA levels in the blood beyond 10 hours (beyond 10 hours from oral consumption): nearly zero concentration; also recorded: almost zero concentrations
- bioavailability (in vivo): poorly bioavailable
- water solubility [1]: highly water-insoluble
- 5-lipoxygenase inhibition, rank among the boswellic acids (5-lipoxygenase): most potent inhibitor
